# Reference: patent US4443436A, “C-20-Modified macrolide derivatives of the macrolide antibiotics tylosin, desmycosin, macrocin, and lactenocin” (Eli Lilly and Company, priority 1982, dated 1984)
# Where two headings read alike, the source gives them in different places.
# Legend:
# Mycoplasma hyorhinis = assay: MIC, broth-dilution microtiter test, Mycoplasma hyorhinis; type: cell-based
# From the text: (§1) The MIC's in Table X were obtained using conventional broth-dilution microtiter tests.
# [1] = system: Staphylococcus epidermidis EPI2; assay: MIC, standard agar-dilution assay, Staphylococcus epidermidis EPI2; type: cell-based; conditions: Staphylococcus epidermidis EPI2, agar dilution
# [2] = system: Staphylococcus aureus S13E; assay: MIC, standard agar-dilution assay, Staphylococcus aureus S13E; type: cell-based
# [3] = system: Staphylococcus aureus X1.1; assay: MIC, standard agar-dilution assay, Staphylococcus aureus X1.1; type: cell-based
# [4] = system: Pasteurella multocida 17E; assay: MIC, broth-dilution microtiter test, Pasteurella multocida 17E; type: cell-based; conditions: Pasteurella multocida 17E, bovine isolate, broth-dilution microtiter
# From the text: as §1
# [5] = system: Streptococcus pyogenes C203; assay: MIC, standard agar-dilution assay, Streptococcus pyogenes C203; type: cell-based
# [6] = system: Pasteurella multocida 60A; assay: MIC, broth-dilution microtiter test, Pasteurella multocida 60A; type: cell-based
# From the text: as §1
# [7] = system: Haemophilus influenzae Holt; assay: MIC, standard agar-dilution assay, Haemophilus influenzae Holt; type: cell-based
# Mycoplasma synoviae = assay: MIC, broth-dilution microtiter test, Mycoplasma synoviae; type: cell-based; conditions: Mycoplasma synoviae, broth-dilution microtiter
# From the text: as §1
# Streptococcus Group 9960 = assay: MIC, standard agar-dilution assay, Streptococcus Group 9960; type: cell-based; conditions: Streptococcus Group 9960, agar dilution
# Streptococcus bovis 80 = assay: MIC, broth-dilution microtiter test, Streptococcus bovis 80; type: cell-based; conditions: Streptococcus bovis 80, broth-dilution microtiter
# From the text: as §1
# [8] = system: Staphylococcus aureus X400; assay: MIC, standard agar-dilution assay, Staphylococcus aureus X400; type: cell-based
# [9] = system: Pasteurella hemolytica 22C; assay: MIC, broth-dilution microtiter test, Pasteurella hemolytica 22C; type: cell-based
# From the text: as §1
# [10] = system: Haemophilus influenzae R252; assay: MIC, standard agar-dilution assay, Haemophilus influenzae R252; type: cell-based
# [11] = system: Staphylococcus epidermidis EPI1; assay: MIC, standard agar-dilution assay, Staphylococcus epidermidis EPI1; type: cell-based
# [12] = system: Streptococcus pneumoniae Park I; assay: microbe, parasite or virus in culture; type: cell-based
# Mycoplasma gallisepticum = assay: MIC, broth-dilution microtiter test, Mycoplasma gallisepticum; type: cell-based; conditions: Mycoplasma gallisepticum, broth-dilution microtiter
# From the text: as §1
# Mycoplasma hyopneumoniae = assay: MIC, broth-dilution microtiter test, Mycoplasma hyopneumoniae; type: cell-based
# From the text: as §1
# Staphylococcus aureus = assay: MIC, broth-dilution microtiter test, Staphylococcus aureus; type: cell-based
# From the text: as §1
# [13] = system: Streptococcus pyogenes C203; assay: In vivo protection of mice experimentally infected with S. pyogenes C203; conditions: mice, doses given 1 and 4 hours post-infection; for ED50: Streptococcus pyogenes
# Experimental: The C-20 modified derivatives of this invention have shown in vivo antimicrobial activity against experimentally-induced infections in laboratory animals. When two doses of test compound were administered to mice experimentally infected with S. pyogenes C203, the activity observed was measured as an ED50 value [effective dose in mg/kg to protect 50% of the test animals: see Warren Wick, et al., J. Bacteriol. 81, 233-235 (1961)].
# [14] = system: Streptococcus Group D X66; assay: MIC, standard agar-dilution assay, Streptococcus Group D X66; type: cell-based
# [15] = system: Staphylococcus aureus V41; assay: MIC, standard agar-dilution assay, Staphylococcus aureus V41; type: cell-based
# [16] = Mycoplasma hyorhinis, broth-dilution microtiter
# [17] = Staphylococcus aureus S13E, agar dilution
# [18] = Staphylococcus aureus X1.1, agar dilution
# [19] = Streptococcus pyogenes C203, agar dilution
# [20] = Pasteurella multocida 60A, avian isolate, broth-dilution microtiter
# [21] = Haemophilus influenzae Holt, ampicillin-sensitive strain, agar dilution
# [22] = Staphylococcus aureus X400, methicillin-resistant strain, agar dilution
# [23] = Pasteurella hemolytica 22C, broth-dilution microtiter
# [24] = Haemophilus influenzae R252, ampicillin-resistant strain, agar dilution
# [25] = Staphylococcus epidermidis EPI1, agar dilution
# [26] = Streptococcus pneumoniae Park I, agar dilution
# [27] = Mycoplasma hyopneumoniae, broth-dilution microtiter
# [28] = Streptococcus Group D X66, agar dilution
# [29] = Staphylococcus aureus V41, penicillin-resistant strain, agar dilution
smiles,measurement,setting,value
"CCC1OC(=O)CC(O)C(C)C(OC2OC(C)C(O)C(N(C)C)C2O)C(CCOc2ccc(Oc3ccccc3)cc2)CC(C)C(=O)C=CC(C)=CC1COC1OC(C)C(O)C(OC)C1OC (stereo not drawn) [Compound 47, 20-DH-20-O-(p-Phenoxyphenyl)desmycosin]",MIC,Mycoplasma hyorhinis; [16],6.25 µg/mL
same,MIC,[1],0.25 µg/mL
same,MIC,[2]; [17],0.25 µg/mL
same,MIC,[3]; [18],0.5 µg/mL
same,MIC,[4],25 µg/mL
same,MIC,[5]; [19],0.25 µg/mL
same,MIC,[6]; [20],25 µg/mL
same,MIC,[7]; [21],16 µg/mL
same,MIC,Mycoplasma synoviae,0.09 µg/mL
same,MIC,Streptococcus Group 9960,1 µg/mL
same,MIC,Streptococcus bovis 80,0.09 µg/mL
same,MIC,[8]; [22],0.5 µg/mL
same,MIC,[9]; [23],25 µg/mL
same,MIC,[10]; [24],16 µg/mL
same,MIC,[11]; [25],0.5 µg/mL
same,MIC,[12]; [26],0.25 µg/mL
same,MIC,Mycoplasma gallisepticum,< 0.05 µg/mL
same,MIC,Mycoplasma hyopneumoniae; [27],3.12 µg/mL
same,MIC,Staphylococcus aureus; broth-dilution microtiter,0.78 µg/mL
same,"ED50, Oral",[13]; oral,29 mg/kg × 2
same,"ED50, Subcutaneous",[13]; subcutaneous,> 10 mg/kg × 2
same,MIC,[14]; [28],0.5 µg/mL
same,MIC,[15]; [29],0.5 µg/mL
"CCC1OC(=O)CC(O)C(C)C(OC2OC(C)C(O)C(N(C)C)C2O)C(CCOc2ccc(C=O)cc2)CC(C)C(=O)C=CC(C)=CC1COC1OC(C)C(O)C(OC)C1OC (stereo not drawn) [Compound 36, 20-DH-20-O-(p-formylphenyl)desmycosin]",MIC,Mycoplasma hyorhinis; Mycoplasma,50 µg/mL
same,MIC,[1]; read-out: MIC,0.12 µg/mL
same,MIC,"[2]; Staphylococcus aureus, S13E",0.25 µg/mL
same,MIC,"[3]; Staphylococcus aureus, X1.1",0.25 µg/mL
same,MIC,[4]; read-out: MIC,25 µg/mL
same,MIC,"[5]; Streptococcus pyogenes, C203",1 µg/mL
same,MIC,"[6]; Pasteurella multocida, 60A",12.5 µg/mL
same,MIC,[7]; Haemophilus influenzae,16 µg/mL
same,MIC,"Mycoplasma synoviae; Mycoplasmopsis synoviae, read-out: MIC",> 50 µg/mL
same,MIC,"Streptococcus Group 9960; GROUP9960, read-out: MIC",8 µg/mL
same,MIC,"Streptococcus bovis 80; Streptococcus equinus, read-out: MIC",12.5 µg/mL
same,MIC,"[8]; Staphylococcus aureus, X400",0.25 µg/mL
same,MIC,"[9]; Pasteurella, 22C",50 µg/mL
same,MIC,"[10]; Haemophilus influenzae, R252",16 µg/mL
same,MIC,"[11]; Staphylococcus epidermidis, EPI1",0.25 µg/mL
same,MIC,[12]; Streptococcus pneumoniae,1 µg/mL
same,MIC,"Mycoplasma gallisepticum; Mycoplasmoides gallisepticum, read-out: MIC",25 µg/mL
same,MIC,Mycoplasma hyopneumoniae; Mesomycoplasma hyopneumoniae,12.5 µg/mL
same,MIC,Staphylococcus aureus,12.5 µg/mL
same,ED50,"[13]; C203, sc, subcutaneous, read-out: ED50, Subcutaneous",2.2 mg/kg
same,ED50,"[13]; C203, oral, read-out: ED50, Oral",19 mg/kg
same,MIC,[14],4 µg/mL
same,MIC,"[15]; Staphylococcus aureus, V41",0.25 µg/mL
"CCC1OC(=O)CC(O)C(C)C(OC2OC(C)C(O)C(N(C)C)C2OC(C)=O)C(CCOc2ccccc2)CC(C)C(=O)C=CC(C)=CC1COC1OC(C)C(O)C(OC)C1OC (stereo not drawn) [Compound 67, 20-DH-20-O-Phenyl-2'-O-acetyldesmycosin]",MIC,Mycoplasma hyorhinis; [16],50 µg/mL
same,MIC,[1],0.12 µg/mL
same,MIC,[2]; [17],0.25 µg/mL
same,MIC,[3]; [18],0.25 µg/mL
same,MIC,[4],25 µg/mL
same,MIC,[5]; [19],1 µg/mL
same,MIC,[6]; [20],25 µg/mL
same,MIC,[7]; [21],32 µg/mL
same,MIC,Mycoplasma synoviae,3.12 µg/mL
same,MIC,Streptococcus Group 9960,8 µg/mL
same,MIC,Streptococcus bovis 80,12.5 µg/mL
same,MIC,[8]; [22],0.5 µg/mL
same,MIC,[9]; [23],25 µg/mL
same,MIC,[10]; [24],16 µg/mL
same,MIC,[11]; [25],0.25 µg/mL
same,MIC,[12]; [26],0.25 µg/mL
same,MIC,Mycoplasma gallisepticum,0.39 µg/mL
same,MIC,Mycoplasma hyopneumoniae; [27],12.5 µg/mL
same,MIC,Staphylococcus aureus; broth-dilution microtiter,0.78 µg/mL
same,"ED50, Oral",[13]; oral,9 mg/kg × 2
same,"ED50, Subcutaneous",[13]; subcutaneous,1.0 mg/kg × 2
same,MIC,[14]; [28],4 µg/mL
same,MIC,[15]; [29],0.25 µg/mL
